# Tests used:
# [1] = system: hippocampal SC-CA1 synapses; assay: Tetanus-induced LTP (fEPSP), hippocampal slices; type: cell-based, mouse; details: 4 uM
# Method: (§1) For electrophysiological experiments, sagittal hippocampal slices (400 uM thick for extracellular, 300 uM thick for intracellular recordings) of Shank2^-/- mice (or ZnT3^-/- mice) and their wild-type littermates were prepared using a vibratome (Leica VT1200) in ice-cold dissection buffer containing (in mM) 212 sucrose, 25 NaHCO3, 5 KCl, 1.25 NaH2PO4, 0.5 CaCl2, 3.5 MgSO4, 10 D-glucose, 1.25 L-ascorbic acid, and 2 Na-pyruvate bubbled with 95% 02/5% CO2. CA3 was removed to prevent epileptiform activity. Slices were restored for 1 hour in 32° C. in a normal artificial CSF (ACSF) (In units of mM: 124 NaCl, 2.5 kCl, 1 NaH2PO4, 25 NaHCO3, 10 glucose, 2 CaC12, 2 Mg504 oxidized by 95% 02/5% CO2) For the recording, a single slice was moved to and maintained in submerged-type chamber at 28° C., continuously perfused with ACSF (2 mL/minute) saturated with 95% 02/5% CO2. Stimulation and recording pipettes were pulled from borosilicate glass capillaries (Harvard Apparatus) using a micropipette electrode puller ([…]). For extracellular recordings, mouse hippocampal slices at the age of postnatal day 21 to 35 were used. Field excitatory postsynaptic potentials (fEPSPs) were recorded in the stratum radiatum of the hippocampal CA1 region using pipettes filled with ACSF (1 MΩ). fEPSP was amplified (Multiclamp 700B, Molecular Devices), and digitized (Digidata 1440A, Molecular Devices) for measurements. The Schaffer collateral pathway was stimulated every 20 seconds with pipettes filled with ACSF (0.3 to 0.5 MΩ). The stimulation intensity was adjusted to yield a half-maximal response, and three successive responses were averaged and expressed relative to the normalized baseline. To induce LTP, high frequency stimulation (100 Hz, 1 s) was applied after a stable baseline was acquired.
# Shank2^−/− mice = assay: Open field test; type: in vivo, mouse; details: 30 mg/kg i.p.; for Locomotor activity (hyperactivity, excessive action) / Time spent in the center region (anxiety-like behavior): 30 mg/kg
# Method: The injection was performed 2 hours before (Shank2^−/− mice and wild-type littermates), or 3 hours before (Tbr1^+/− mice and wild-type littermates) behavioral assays at the discretion of the facility. A within-subjects design was designed with a one week washout period (FIG. 8), and divided animals into two groups, vehicle-first and clioquinol-first group, to rule out carryover effects. Each mouse received a single acute dose of vehicle or clioquinol, and underwent a single behavioral task, one task per week. Testing was conducted in dedicated behavioral test rooms during the light phase (three-chamber test) and the dark phase (repetitive behaviors and open field test). The size of the open field box was 40×40×40 cm, and the center zone line was 13.3 cm apart from the edge. Mice were placed in the center in the beginning of the test, and mouse movements were recorded with a video camera for 60 minutes, and analyzed by Ethovision 10.0 (Noldus).
# AMPAR = assay: AMPA-fEPSPs, input-output and paired pulse ratio, hippocampal slices; type: cell-based, mouse; details: 4 uM; for AMPA-fEPSPs: WT and KO; for Input-output relationship (AMPA-fEPSP slopes against fiber volley): WT and Shank2^−/− SC-CA1 synapses
# Method: as §1
# NMDAR = assay: NMDA-fEPSP extracellular recordings, hippocampal slices; type: cell-based, mouse; details: for NMDAR function (NMDA-fEPSPs) at ZnT3^−/− synapses: ZnT3^−/− hippocampal SC-CA1 synapses
# Method: For electrophysiological experiments, sagittal hippocampal slices (400 uM thick for extracellular, 300 uM thick for intracellular recordings) of Shank2^−/− mice (or ZnT3^−/− mice) and their wild-type littermates were prepared using a vibratome (Leica VT1200) in ice-cold dissection buffer containing (in mM) 212 sucrose, 25 NaHCO3, 5 KCl, 1.25 NaH2PO4, 0.5 CaCl2, 3.5 MgSO4, 10 D-glucose, 1.25 L-ascorbic acid, and 2 Na-pyruvate bubbled with 95% 02/5% CO2. CA3 was removed to prevent epileptiform activity. Slices were restored for 1 hour in 32° C. in a normal artificial CSF (ACSF) (In units of mM: 124 NaCl, 2.5 kCl, 1 NaH2PO4, 25 NaHCO3, 10 glucose, 2 CaC12, 2 Mg504 oxidized by 95% 02/5% CO2) For the recording, a single slice was moved to and maintained in submerged-type chamber at 28° C., continuously perfused with ACSF (2 mL/minute) saturated with 95% 02/5% CO2. Stimulation and recording pipettes were pulled from borosilicate glass capillaries (Harvard Apparatus) using a micropipette electrode puller (Narishege).
# For extracellular recordings, mouse hippocampal slices at the age of postnatal day 21 to 35 were used. Field excitatory postsynaptic potentials (fEPSPs) were recorded in the stratum radiatum of the hippocampal CA1 region using pipettes filled with ACSF (1 MΩ). fEPSP was amplified (Multiclamp 700B, Molecular Devices), and digitized (Digidata 1440A, Molecular
# Devices) for measurements. The Schaffer collateral pathway was stimulated every 20 seconds with pipettes filled with ACSF (0.3 to 0.5 MΩ). The stimulation intensity was adjusted to yield a half-maximal response, and three successive responses were averaged and expressed relative to the normalized baseline. To induce LTP, high frequency stimulation (100 Hz, 1 s) was applied after a stable baseline was acquired. […] To isolate NMDAR-mediated fEPSPs, ACSF containing 2 mM calcium, 0.1 mM magnesium, and 6,7-dinitroquinoxaline-2,3-dione (10 uM, DNQX, Tocris), which inhibits AMPAR-mediated EPSPs, were used.
compound,measurement,setting,value
"Oc1c(I)cc(Cl)c2cccnc12 [clioquinol, 5-Chloro-7-Iodo-8-Hydroxyquinoline]",Tetanus (100 Hz)-induced LTP,[1]; Shank2^−/− SC-CA1 synapses,reversed the reduced tetanus-induced long-term potentiation
same,Tetanus (100 Hz)-induced LTP,"[1]; Shank2^−/− SC-CA1 synapses, listed as CQ",restored LTP
same,Tetanus (100 Hz)-induced LTP,[1]; wild-type synapses,had no effect on LTP
same,"Locomotor activity (hyperactivity, excessive action)",Shank2^−/− mice; Shank2^−/− mice,did not weaken
same,Time spent in the center region (anxiety-like behavior),Shank2^−/− mice; Shank2^−/− mice,had no effect on the center-region time
same,Time spent in the center region (anxiety-like behavior),"Shank2^−/− mice; Shank2^−/− mice, listed as CQ",has no effect on the time spent in the center region
same,"Locomotor activity (hyperactivity, excessive action)","Shank2^−/− mice; Shank2^−/− mice, listed as Clioquinol",did not improve excessive action
same,Locomotor behavior,Shank2^−/− mice; wild-type mice,had no effect
same,Time spent in the center region (anxiety-like behavior),"Shank2^−/− mice; wild-type mice, listed as CQ",has no effect on the time spent in the center region
same,Time spent in the center region (anxiety-like behavior),"Shank2^−/− mice; wild-type mice, listed as Clioquinol",had no effect
same,AMPA-fEPSPs,AMPAR,not affected
same,AMPA-fEPSPs,AMPAR; listed as CQ,has no effect on AMPA-fEPSPs
same,Input-output relationship (AMPA-fEPSP slopes against fiber volley),AMPAR,had no effect
same,Input-output relationship (AMPA-fEPSP slopes against fiber volley),AMPAR; listed as CQ,has no effect on the input-output relationship
same,NMDAR function (NMDA-fEPSPs) in the presence of PP3,"NMDAR; CQ 4 uM, 20 minutes",effectively enhances NMDAR function
same,NMDAR function (NMDA-fEPSPs) in the presence of Ca-EDTA,"NMDAR; CQ 4 uM, 20 minutes, Ca-EDTA 2 mM throughout recordings",fails to enhance NMDAR function
same,NMDAR function (NMDA-fEPSPs) in the presence of PP2,"NMDAR; CQ 4 uM, 20 minutes, PP2 10 uM throughout recordings",fails to enhance NMDAR function
same,NMDAR function (NMDA-fEPSPs) in the presence of SU6656,"NMDAR; CQ 4 uM, 20 minutes, SU6656 10 uM throughout recordings",fails to enhance NMDAR function
same,NMDAR function (NMDA-fEPSPs) in the presence of TPEN,"NMDAR; CQ 4 uM, 20 minutes, TPEN 25 uM throughout recordings",fails to enhance NMDAR function
same,Initial slopes of NMDA-fEPSPs,"NMDAR; Shank2^−/− SC-CA1 synapses, clioquinol for 20 minutes",~150 % of baseline levels
same,NMDAR function (NMDA-fEPSPs) in the presence of cuprizone,NMDAR; WT and KO slices,enhances NMDAR function
same,NMDAR function (NMDA-fEPSPs),"NMDAR; WT and Shank2^−/− SC-CA1 synapses, 4 uM, 20 minutes",enhances NMDAR function
same,NMDAR function (NMDA-fEPSPs) at ZnT3^−/− synapses,NMDAR,had no effect on NMDAR activity
same,NMDAR function (NMDA-fEPSPs) at ZnT3^−/− synapses,NMDAR; listed as CQ,fails to enhance NMDAR function

# Source: patent publication US20160120858A1 (ACADEMIA SINICA, priority 2014, published 2016)
